# Results from PMC4604124, “In Vitro Characterization of the Pharmacological Properties of the Anti-Cancer Chelator, Bp4eT, and Its Phase I Metabolites” (PLoS ONE, 2015).
# Where “and” joins values, the source holds several entries; their conditions need not be identical. Equal values may be shown once.
# Legend:
# [1] = Ascorbate oxidation assay (redox activity of iron complexes); assay type: biochemical;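 as to %Fe 30min (ascorbate oxidation, Fe 100%), průměr: IBE 3 means excess free chelator over iron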;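 as to %Fe 30min (ascorbate oxidation, Fe 100%): IBE 3 means excess free chelator over iron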;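 as to %Fe 30min: ascorbate oxidation as % of the Fe control (Fe 100%): IBE 0.1 means iron-binding equivalents with iron in excess over chelator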;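 as to Change of absorbance, odečet 0 (time 0 subtracted), čas 10, průměr: IBE 3 means excess free chelator over 10 µM FeCl3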;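 as to Change of absorbance, odečet 0 (time 0 subtracted), čas 10: IBE 3 means excess free chelator over 10 µM FeCl3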
# Procedure: The ascorbate oxidation assay was used to assess the redox activity of the iron complexes of the chelators using an established protocol. In brief, 100 μM ascorbic acid was prepared immediately prior to the experiment and incubated either alone or in the presence of 10 μM FeCl3 in a 50-fold molar excess (500 μM) of citrate and the chelators. Chelators were assayed at iron-binding equivalents (IBE) of 0.1 (excess of iron), 1 (fully coordinated iron—chelator complexes) and 3 (excess of free chelator). […] The decrease of absorbance between the two time points was calculated and expressed as a percentage of control without the chelator.
# [2] = test system: A549 human lung adenocarcinoma cells; test: MTT cytotoxicity assay, A549 cells; assay type: cell-based; details: for MTT, relative to control (0 = 100): A549, 2 000 b/j, sheet Bp4eA
# Procedure: For cytotoxicity experiments, cancer cells were seeded at a density of 5,000 (MCF-7), 10,000 (HL-60) or 2,000 cells/well (HCT116 and A549) in 96-well plates (TPP) for 24 h/37°C prior to the addition of examined agents. The non-cancerous cells, 3T3 and H9c2 cells, were cultured for 24 h/37°C in 96-well plates at a density of 10,000 cells/well, the medium was then changed to serum- and pyruvate-free DMEM (Sigma-Aldrich) and incubated with the cells for another 24 h/37°C. The cytotoxic effects of Bp4eT and its metabolites were studied at different concentrations after a 72 h/37°C incubation. In order to aid the dissolution of the lipophilic ligands, 0.1% dimethyl sulfoxide (v/v) (DMSO; Sigma-Aldrich) was present in the culture medium of all groups. At this concentration, DMSO had no effect on cellular proliferation or viability.
# The viability of cells were determined using an MTT assay (Sigma-Aldrich) according to previously established methods. The optical density of soluble MTT was measured at λ = 570 nm, subtracting the λ = 690 nm background using a Tecan Infinite 200M plate reader (Tecan Group, Männedorf, Switzerland). The viability or proliferation of experimental groups was expressed as a percentage of the untreated controls (100%).
# SigmaStat for Windows 3.5 (Systat Software, San Jose, CA, USA) statistical software package was utilized to analyze results. The data are expressed as the mean ± SD of a given number of experiments. Statistical significance was determined using a one-way ANOVA with a Bonferroni post-hoc test or Student’s t-test. The results were considered to be statistically significant when p < 0.05. The IC50 values were calculated using CalcuSyn 2.0 software (Biosoft, Cambridge, UK). Cell cycle analysis was evaluated using MultiCycle AV Software (Phoenix Flow Systems, San Diego, CA, USA).
# [3] = sheet IBE 1, time 10, replicates
# [4] = sheet IBE 1, time 20, replicates
# [5] = sheet IBE 1, time 30, replicates
smiles,measurement,setting,value
"CCN=CNN=C(c1ccccc1)c1ccccn1 [Bp4eA, N ^3-ethyl-N ^1-[phenyl(pyridin-2-yl)methylene]formamidrazone]",%Fe 30min: ascorbate oxidation as % of the Fe control (Fe 100%),"[1]; IBE 0.1, 30 min, mean (průměr)",102.5%
same,Change of absorbance after subtraction of time 0 (odečet 0),"[1]; IBE 0.1, time 10, mean (průměr)",-0.03561
same,Change of absorbance after subtraction of time 0 (odečet 0),"[1]; IBE 0.1, time 20, mean (průměr)",-0.0674
same,Change of absorbance after subtraction of time 0 (odečet 0),"[1]; IBE 0.1, time 30, mean (průměr)",-0.09706
same,"Absorbance (ascorbate, λ = 265 nm)","[1]; IBE 0.1, čas 0 (time 0), mean (průměr)",0.8401
same,"Absorbance (ascorbate, λ = 265 nm)","[1]; IBE 0.1, čas 10 (time 10), mean (průměr)",0.8044
same,"Absorbance (ascorbate, λ = 265 nm)","[1]; IBE 0.1, čas 20 (time 20), mean (průměr)",0.7727
same,"Absorbance (ascorbate, λ = 265 nm)","[1]; IBE 0.1, čas 30 (time 30), mean (průměr)",0.743
same,"%Fe 30min (ascorbate oxidation, Fe = 100%), průměr (mean)","[1]; sheet IBE 1, 30min, Fe 100%, mean",106.5%
same,"%Fe 30min (ascorbate oxidation, Fe = 100%), single replicates","[1]; sheet IBE 1, 30min, Fe 100%, replicates",113.3% and 104.9% and 102.6% and 110.5% and 113.6% and 110.3% and 106.1% and 101.1% and 95.68%
same,"raw reading at čas 0 (time 0), průměr (mean)","[1]; sheet IBE 1, time 0, mean of 9 readings",0.8163
same,"raw reading at čas 0 (time 0), single replicates","[1]; sheet IBE 1, time 0, replicates of 2014-03-24 (two runs) and 2014-03-25",0.8356 and 0.8379 and 0.8058 and 0.8059 and 0.8041 and 0.8006 and 0.8152 and 0.8134 and 0.828
same,"odečet 0 (reading minus time 0 reading) at čas 10, průměr (mean)","[1]; sheet IBE 1, time 10, mean",-0.03248
same,"raw reading at čas 10 (time 10), průměr (mean)","[1]; sheet IBE 1, time 10, mean of 9 readings",0.7838
same,"odečet 0 (reading minus time 0 reading) at čas 10, single replicates",[1]; [3],-0.02971 and -0.02191 and -0.02781 and -0.03858 and -0.03648 and -0.03745 and -0.03205 and -0.03185
same,"raw reading at čas 10 (time 10), single replicates",[1]; [3],0.7761 and 0.784 and 0.7763 and 0.762 and 0.7787 and 0.7769 and 0.7906 and 0.8036 and 0.8061
same,"odečet 0 (reading minus time 0 reading) at čas 20, průměr (mean)","[1]; sheet IBE 1, time 20, mean",-0.06498
same,"raw reading at čas 20 (time 20), průměr (mean)","[1]; sheet IBE 1, time 20, mean of 9 readings",0.7513
same,"odečet 0 (reading minus time 0 reading) at čas 20, single replicates",[1]; [4],-0.0647 and -0.0595 and -0.0576 and -0.07087 and -0.07167 and -0.06987 and -0.06821 and -0.06221 and -0.06021
same,"raw reading at čas 20 (time 20), single replicates",[1]; [4],0.7411 and 0.7464 and 0.7465 and 0.7297 and 0.7435 and 0.7598 and 0.7734 and 0.7777
same,"odečet 0 (reading minus time 0 reading) at čas 30, průměr (mean)","[1]; sheet IBE 1, time 30, mean",-0.09465
same,"raw reading at čas 30 (time 30), průměr (mean)","[1]; sheet IBE 1, time 30, mean of 9 readings",0.7216
same,"odečet 0 (reading minus time 0 reading) at čas 30, single replicates",[1]; [5],-0.09786 and -0.09066 and -0.08866 and -0.09551 and -0.09811 and -0.09531 and -0.1001 and -0.09539 and -0.09029
same,"raw reading at čas 30 (time 30), single replicates",[1]; [5],0.7079 and 0.7152 and 0.7154 and 0.7051 and 0.7171 and 0.7181 and 0.7279 and 0.7402 and 0.7477
same,"%Fe 30min (ascorbate oxidation, Fe 100%), průměr","[1]; sheet IBE 3, 30min, Fe alone = 100%, mean (průměr) of the 9 replicates",105.3%
same,"%Fe 30min (ascorbate oxidation, Fe 100%)","[1]; sheet IBE 3, 30min, Fe alone = 100%, single replicates",100.1% and 103.3% and 98.42% and 112.4% and 108.5% and 106.2% and 109.9% and 107% and 102%
same,"Change of absorbance, odečet 0 (time 0 subtracted), čas 10, průměr","[1]; sheet IBE 3, time 10 minus time 0, mean (průměr)",-0.03537
same,"Change of absorbance, odečet 0 (time 0 subtracted), čas 10","[1]; sheet IBE 3, time 10 minus time 0, single replicates",-0.03156 and -0.03676 and -0.03266 and -0.04073 and -0.03893 and -0.03883 and -0.03458 and -0.03388 and -0.03038
same,"Change of absorbance, odečet 0 (time 0 subtracted), čas 20, průměr","[1]; sheet IBE 3, time 20 minus time 0, mean (průměr)",-0.06757
same,"Change of absorbance, odečet 0 (time 0 subtracted), čas 20","[1]; sheet IBE 3, time 20 minus time 0, single replicates",-0.06509 and -0.07099 and -0.06549 and -0.07376 and -0.07016 and -0.07036 and -0.06559 and -0.06109
same,"Change of absorbance, odečet 0 (time 0 subtracted), čas 30, průměr","[1]; sheet IBE 3, time 30 minus time 0, mean (průměr)",-0.0973
same,"Change of absorbance, odečet 0 (time 0 subtracted), čas 30","[1]; sheet IBE 3, time 30 minus time 0, single replicates",-0.09296 and -0.09586 and -0.09136 and -0.1043 and -0.1007 and -0.0986 and -0.1006 and -0.09796 and -0.09336
same,"Therapeutic index, IC50 non-cancerous cells / IC50 neoplastic cells",[2]; 3T3/A549,5.0
same,"MTT, relative to control (0 = 100)","[2]; 1 μM, průměr (mean)",94.41
same,"MTT, relative to control (0 = 100)","[2]; 1 μM, single experiment (date)",88.8209 and 94.4571 and 96.7337 and 97.6446
same,"MTT, relative to control (0 = 100)","[2]; 3 μM, průměr (mean)",94.09
same,"MTT, relative to control (0 = 100)","[2]; 3 μM, single experiment (date)",86.5333 and 93.7511 and 98.3115 and 97.7691
same,"MTT, relative to control (0 = 100)","[2]; 10 μM, průměr (mean)",92.78
